US5491146A, “Hydroxylated erythro-hydroxynonyladenines and related analogs” (Cypros Pharmaceutical Corporation, priority 1994, dated 1996)
Read-outs that look alike come from different tables or passages of the source.

Tests used:
[1] = tested on: intact hearts from male Sprague-Dawley rats; test: Langendorf isolated perfused heart, simulated ischemia 20 minutes then reoxygenation; design: species or system rat; conditions: for % fibr.: isolated rat hearts, 10 min drug treatment, 20 min ischemia; for # fibrillating: number of hearts fibrillating out of Total #
From the text: The tests carried out by Dr. Rodgers used a widely-used protocol known as a "Langendorf" preparation, which involves removing intact hearts from sacrificed lab animals (male Sprague-Dawley rats were used), and perfusing the hearts with liquids containing controlled quantities (or deficits) of oxygen and glucose for fixed periods of time. […] The left atrium is filled at 15 cm H2 O pressure, and the left ventricle ejects into a buffer-filled column against a pressure which equates to 72 mm Hg, except during ischemic periods. The perfusate was Krebs-Henseleit buffer with HCO3 (25 mM), Ca^++ (2.2 mM), and glucose (10 mM). […] Pefusate and ambient temperatures were held at 37° C. and the hearts were allowed to beat spontaneously.
Following stabilization and treatment, the hearts were subjected to simulated ischemia for 20 minutes; no oxygen was added to the perfusate during this period. When the ischemic period ended, oxygen was again added to the perfusion buffer, and the following parameters were measured over a period of 10 minutes:
LVPP--left ventricular pulse pressures (time-dependent pressures, calculated as peak pressure minus diastolic pressure, in mm Hg, millimeters of mercury column)
LVEDP--left ventricular end diastolic pressure (i.e, time-dependent pressures as the ventricle relaxed during diastolic filling, in mm Hg)
CFR--coronary flow rate (mL/min)
HR--spontaneous heartbeat rate (beats/min)
ECG--electrocardiogram (surface potential, in mV)

[2] = molecular target: T1, calf intestinal ADA (Type III, Sigma Chemical Company) (Bos taurus, UniProt P56658); test: Testing for ADA inhibition, direct spectrophotometric assay at 265 nm; type: biochemical; conditions: for Ki: calf intestinal ADA, 30° C.; for inhibition of ADA activity (in words): tested as in Example 2
T1 construct: purchased Sigma Chemical Company Type III; host or cells: calf intestine
T1 sequence (P56658 1-363): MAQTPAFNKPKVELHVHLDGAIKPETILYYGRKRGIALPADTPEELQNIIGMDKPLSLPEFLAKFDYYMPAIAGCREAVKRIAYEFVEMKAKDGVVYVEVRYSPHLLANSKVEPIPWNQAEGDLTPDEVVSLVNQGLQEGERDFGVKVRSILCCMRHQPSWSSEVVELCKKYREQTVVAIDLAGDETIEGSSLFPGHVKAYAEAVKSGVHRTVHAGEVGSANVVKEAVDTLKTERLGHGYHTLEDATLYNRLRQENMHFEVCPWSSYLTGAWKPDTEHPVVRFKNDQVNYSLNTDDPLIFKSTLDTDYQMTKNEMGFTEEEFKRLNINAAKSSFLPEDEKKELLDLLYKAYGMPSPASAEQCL
Protocol: Compounds [10] (the 9-hydroxy analog), [23] (the 8-hydroxy analog), and [14] (the 8,9-dihydroxy analog) were tested for ADA inhibition activity, using calf intestinal ADA (Type III, Sigma Chemical Company) measured at 30° C. by direct spectrophotometric assays at 265 nm, as described in Harriman et al 1992.
Several of the analogs described in Example 3 were tested for inhibition of the adenosine deaminase (ADA) enzyme, using the procedures described in Example 2.

[3] = animals; cited from earlier work
[4] = mammalian bloodstream; cited from earlier work
[5] = molecular target: adenosine deaminase (ADA); conditions: read-out: Ki value (ADA); background statement; cited from earlier work
[6] = read-out: Ki values (ADA inhibition)
[7] = read-out: Ki value (ADA inhibition)
[8] = isolated rat hearts after ischemia

Row | Ki [2, 6] [nM] | inhibition of ADA activity (in words) [2] | Ki [2, 7] [nM] | Compound | % fibr. [1] [%] | # fibrillating [1] | other results
1 |  |  |  | CCN(CC)C(=S)SSC(=S)N(CC)CC [Disulfiram, disulfiram] | 40 | 2 | 
2 | 5 | potency in the desired range |  | COC(=O)CCCCC[C@H]([C@H](C)O)n1cnc2c(N)ncnc21 [Compound 31] |  |  | 
3 | 11 | shown to inhibit ADA activity | 11 | CC(O)CCCC[C@H]([C@H](C)O)n1cnc2c(N)ncnc21 (single isomer, unassigned) [Compound 23] |  |  | 
4 |  |  |  | OC[C@H]1O[C@@H](n2cnc3c2NC=NC[C@H]3O)C[C@@H]1O [dCF, deoxycoformycin] |  |  | toxic side effects [3]: serious and unpredictable toxic side effects in some animals
5 | 3.7 | potency in the desired range |  | C[C@H](O)[C@@H](CCCCCCCl)n1cnc2c(N)ncnc21 [Compound 29, 9-[9-chloro-2(S)-hydroxy-3(R)-nonyl]adenine] |  |  | 
6 | 6 | effective inhibitor of ADA activity | 6 | C[C@H](O)[C@@H](CCCCC(O)CO)n1cnc2c(N)ncnc21 (single isomer, unassigned) [Compound 14] |  |  | 
7 |  | potency in the desired range |  | C[C@H](O)[C@@H](CCCCCCOC(=O)c1ccccc1)n1cnc2c(N)ncnc21 [Compound 25, 9-[9-Benzoyloxy-2(S)-hydroxy-3(R)-nonyl]adenine] |  |  | 
8 |  |  |  | CCCCCC[C@H]([C@H](C)O)n1cnc2c(N)ncnc21 (relative stereo) [EHNA, erythro-hydroxynonyladenine] | 14 | 1 | LVPP (left ventricular pulse pressure) after ischemia [1, 8]: moderate increase; coronary flow rate after ischemia [1, 8]: moderate increase; incidence of fibrillation (in words) [1, 8]: reduced the incidence of fibrillation; metabolism and clearance from bloodstream [4]: metabolized and cleared from the mammalian bloodstream fairly rapidly; Ki [5]: ~4 nM
9 | 3.4 | effective inhibitor of ADA activity | 3.4 | C[C@H](O)[C@@H](CCCCCCO)n1cnc2c(N)ncnc21 [Compound 10] | 11 | 1 | LVPP (left ventricular pulse pressure) after ischemia [1, 8]: moderate increase; coronary flow rate after ischemia [1, 8]: moderate increase; incidence of fibrillation (in words) [1, 8]: reduced the incidence of fibrillation; LVEDP (left ventricular end diastolic pressure), protection against muscle stiffening ([1]; isolated rat hearts after ischemia, compared with EHNA): significantly higher level of protection against muscle stiffening than unmodified EHNA

Row | Compound | Ki [2, 6] [nM] | inhibition of ADA activity (in words) [2] | Ki [2, 7] [nM] | % fibr. [1] [%] | # fibrillating [1] | other results
10 | C=CCCCC[C@H]([C@H](C)O)n1cnc2c(N)ncnc21 [Compound 32, 9-[2(S)-hydroxy-3(R)-non-8-enyl]adenine] |  | potency in the desired range |  |  |  | Ki ([2]; Ki values (ADA inhibition)): 2.5 nM
